Test system: human elastin promoter
Test: human elastin promoter activity by CAT assay in transgenic mouse fibroblast cultures exposed to hypoxanthine/xanthine oxidase
Assay type: cell-based
Details: 10,000 U/ml catalase added just prior to hypoxanthine and xanthine oxidase exposure
Text: Fibroblasts derived from the skin of a homozygous line of transgenic mice expressing the 5.2-kb human elastin promoter, linked to a CAT reporter gene which enables measurement of elastin promoter activation, as previously described (Bernstein et al. J Invest Dermatol 105, 269-273, 1995; and Bernstein et al. Photochem Photobiol 64:369-74, 1996) were utilized. Although phenotypically normal, these mice express the human elastin promoter when assayed for CAT activity (Hsu-Wong et al. J. Biol. Chem. 269: 18072-18075, 1994; Bernstein et al. J Invest Dermatol 105, 269-273, 1995; and Bernstein et al. Photochem Photobiol 64:369-74, 1996). […]
DMEM with 10% FCS was removed, cells were rinsed in phosphate buffered saline (PBS), and DMEM was replaced without the addition of FCS. […] The optimum time span for incubation of cells with hypoxanthine/xanthine oxidase was determined by exposing cells to hypoxanthine/xanthine oxidase for 15, 30, 60, 90 and 120 minutes and determining CAT activity as outlined in Example 3. […]
To measure the expression of the human elastin promoter/CAT reporter gene construct in the skin of transgenic mice and in fibroblast cultures established from these animals, CAT activity was determined. […]

Q: How did the “effect on the hypoxanthine/xanthine oxidase-induced increase in elastin promoter activity” value turn out when catalase was run?
A: fully eliminated this increase

Q: What about the “human elastin promoter activity (CAT assay), fold of untreated controls (mean±sem)” value (90 minutes) of the same substance?
A: 1.0±0.1 fold

Reference: patent US6753146B1, “System and method for evaluating agents which prevent oxidative damage” (priority 1999, dated 2004)
